According to PubChem BioAssay (NCI):
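These data come from cells grown in 96-well plates and exposed to compound for 48 hours at five concentrations. TGI is the concentration that stops growth completely.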

Legend:
Test in all cases: inhibition of tumour cell growth, NCI panel, 48 h
786-0 renal = test system: 786-0 renal
A498 renal = test system: A498 renal
A549 NSCLC = test system: A549 NSCLC
ACHN renal = test system: ACHN renal
BT-549 breast = test system: BT-549 breast
CCRF-CEM leukemia = test system: CCRF-CEM leukemia
DU-145 prostate = test system: DU-145 prostate
EKVX NSCLC = test system: EKVX NSCLC
HCC-2998 colon = test system: HCC-2998 colon
HCT-116 colon = test system: HCT-116 colon
HL-60(TB) leukemia = test system: HL-60(TB) leukemia
HOP-62 NSCLC = test system: HOP-62 NSCLC
HOP-92 NSCLC = test system: HOP-92 NSCLC
HS 578T breast = test system: HS 578T breast
HT29 colon = test system: HT29 colon
IGROV1 ovarian = test system: IGROV1 ovarian
K-562 leukemia = test system: K-562 leukemia
KM12 colon = test system: KM12 colon
M14 melanoma = test system: M14 melanoma
MALME-3M melanoma = test system: MALME-3M melanoma
MCF7 breast = test system: MCF7 breast
MDA-MB-231 breast = test system: MDA-MB-231 breast
MDA-MB-435 = test system: MDA-MB-435
MDA-N = test system: MDA-N
MOLT-4 leukemia = test system: MOLT-4 leukemia
NCI-H226 lung = test system: NCI-H226 lung
NCI-H23 lung = test system: NCI-H23 lung
NCI-H460 lung = test system: NCI-H460 lung
NCI/ADR-RES ovarian = test system: NCI/ADR-RES ovarian
OVCAR-3 ovarian = test system: OVCAR-3 ovarian
OVCAR-5 ovarian = test system: OVCAR-5 ovarian
OVCAR-8 ovarian = test system: OVCAR-8 ovarian
PC-3 prostate = test system: PC-3 prostate
RXF 393 renal = test system: RXF 393 renal
SF-268 CNS = test system: SF-268 CNS
SF-295 CNS = test system: SF-295 CNS
SF-539 CNS = test system: SF-539 CNS
SK-MEL-2 melanoma = test system: SK-MEL-2 melanoma
SK-MEL-28 melanoma = test system: SK-MEL-28 melanoma
SK-MEL-5 melanoma = test system: SK-MEL-5 melanoma
SK-OV-3 ovarian = test system: SK-OV-3 ovarian
SN12C renal = test system: SN12C renal
SNB-19 CNS = test system: SNB-19 CNS
SR leukemia = test system: SR leukemia
SW-620 colon = test system: SW-620 colon
T-47D breast = test system: T-47D breast
TK-10 renal = test system: TK-10 renal
U251 CNS = test system: U251 CNS
UACC-62 melanoma = test system: UACC-62 melanoma
UO-31 renal = test system: UO-31 renal
CAKI-1 renal = test system: CAKI-1 renal
COLO 205 colon = test system: COLO 205 colon
HCT-15 colon = test system: HCT-15 colon
NCI-H522 lung = test system: NCI-H522 lung
OVCAR-4 ovarian = test system: OVCAR-4 ovarian
RPMI-8226 leukemia = test system: RPMI-8226 leukemia
SNB-75 CNS = test system: SNB-75 CNS
UACC-257 melanoma = test system: UACC-257 melanoma

Measured: TGI

COc1cc(N(C)C)c(OC)cc1C=C1C=CC=C1
> 100 µM: 786-0 renal | A498 renal | A549 NSCLC | ACHN renal | BT-549 breast | CCRF-CEM leukemia | DU-145 prostate | EKVX NSCLC | HCC-2998 colon | HCT-116 colon | HL-60(TB) leukemia | HOP-62 NSCLC | HOP-92 NSCLC | HS 578T breast | HT29 colon | IGROV1 ovarian | K-562 leukemia | KM12 colon | M14 melanoma | MALME-3M melanoma | MCF7 breast | MDA-MB-231 breast | MDA-MB-435 | MDA-N | MOLT-4 leukemia | NCI-H226 lung | NCI-H23 lung | NCI-H460 lung | NCI/ADR-RES ovarian | OVCAR-3 ovarian | OVCAR-5 ovarian | OVCAR-8 ovarian | PC-3 prostate | RXF 393 renal | SF-268 CNS | SF-295 CNS | SF-539 CNS | SK-MEL-2 melanoma | SK-MEL-28 melanoma | SK-MEL-5 melanoma | SK-OV-3 ovarian | SN12C renal | SNB-19 CNS | SR leukemia | SW-620 colon | T-47D breast | TK-10 renal | U251 CNS | UACC-62 melanoma | UO-31 renal

CCOC(=O)c1c[nH]c(C(=O)C=[N+]=[N-])c1C1CCN(CC)C1=S (configuration not stated)
> 100 µM: 786-0 renal | A498 renal | A549 NSCLC | ACHN renal | BT-549 breast | CAKI-1 renal | COLO 205 colon | DU-145 prostate | EKVX NSCLC | HCC-2998 colon | HCT-116 colon | HCT-15 colon | HOP-62 NSCLC | HOP-92 NSCLC | HS 578T breast | HT29 colon | IGROV1 ovarian | K-562 leukemia | KM12 colon | M14 melanoma | MALME-3M melanoma | MCF7 breast | MDA-MB-231 breast | MDA-MB-435 | MDA-N | MOLT-4 leukemia | NCI-H23 lung | NCI-H460 lung | NCI-H522 lung | NCI/ADR-RES ovarian | OVCAR-3 ovarian | OVCAR-4 ovarian | OVCAR-5 ovarian | OVCAR-8 ovarian | PC-3 prostate | RPMI-8226 leukemia | RXF 393 renal | SF-268 CNS | SF-295 CNS | SK-MEL-2 melanoma | SK-MEL-28 melanoma | SK-MEL-5 melanoma | SK-OV-3 ovarian | SNB-19 CNS | SNB-75 CNS | SW-620 colon | T-47D breast | TK-10 renal | U251 CNS | UACC-257 melanoma | UACC-62 melanoma | UO-31 renal
